Results on 13 compounds are retold here after US9163011B2, “Oxazine derivatives and their use in the treatment of disease” (NOVARTIS AG, priority 2011, dated 2015).

The subject of assay [1] is Soluble Abeta40 levels in the rat brain and CSF. Put plainly: Test 5: In Vivo Inhibitory Activity (Abeta lowering in rat brain and CSF). As to conditions: male Sprague-Dawley rats, oral gavage, 10 micromoles per kilogram, 4 hours prior to sacrifice; n.s.=not statistically significant. On the procedure: Test 5: In Vivo Inhibitory Activity of Example Compounds
Male Sprague-Dawley rats, 220-280 g weight, (Charles River, France) were dosed by oral gavage with vehicle alone (0.1% Tween80, 0.5% methylcellulose in water) or with compound suspended in vehicle at a dose of 10 micromoles compound per kilogram body weight, 4 hours prior to sacrifice. The 4 hour timepoint was selected in order to compare the activity of compounds that have sufficient pharmacokinetic and biodistribution properties to reduce total brain Abeta within approximately three half-lives of the rat brain Abeta40 peptide.
Immediately prior to sacrifice, anaesthetized rat (spontaneous inhalation, 2-5% Isoflurane and air) were fixed in a stereotaxic apparatus on a raised platform, with anesthesia maintained though a nose cone. The angle of the head was tilted downward, perpendicular to the body, and a hypodermic needle lowered through the skin behind the occipital ridge, into the Cisterna magna. Cerebrospinal fluid (CSF) was withdrawn (˜50-100 μL), dispensed into tubes (protein Lo-bind Eppendorf tubes for Abeta40 analysis, normal Eppendorph tubes for compound analysis), frozen on dry ice and stored at −80° C. until analysis. Rats were then immediately decapitated under anesthesia, trunk blood collected for analysis of compound levels and the brain retrieved. One half-forebrain was dissected by removing the cerebellum and olfactory bulbs, frozen in three pieces on a metal plate pre-cooled on frozen CO2 and stored in tubes at −80° C. until analysis for Abeta40. For the other half-brain, olfactory bulbs were discarded and a sagittal slice taken from the medial aspect, weighing ˜200-400 mg, placed in glass HPLC tubes and frozen on dry ice until analysis for compound levels.
Soluble Abeta40 levels in the rat brain and CSF were quantified using a Meso Scale Discovery (MSD) 96-well MULTI-ARRAY human/rodent (4G8) Abeta40 Ultrasensitive Assay (#K110FTE-3, Meso Scale Discovery, Gaithersburg, USA). Forebrain sample homogenates were prepared by sonication in 9 volumes (w/v) of ice cold TBA. Fifty μL of 2% TX-100 in TBS-complete was added to 50 μL aliquots of the homogenate to reach a final concentration of 1% TX-100 in a 1:20 dilution. Samples were incubated on ice for 15 min interrupted with 3 short vortexing steps, then centrifuged (100 000×g, 4° C., 15 min), and 50 μL of supernatant collected. This was further diluted 1:5 with 3% Blocker A solution from the MSD kit to a final dilution of 1:100 and applied to the MSD plate. CSF samples containing blood were excluded. All other CSF samples were diluted with 1% Blocker A solution (from manufacturers kit) to reach a 1:20 CSF dilution. Calibration curves were prepared in 1% Blocker A solution spiked with synthetic Abeta1-40 peptide. Samples and calibration standards were applied in duplicate at a volume of 25 μL per well. Abeta40 concentrations of samples were estimated from the standard curve using SOFTmax PRO4.0.

The target of another assay is Human BACE-1 (Homo sapiens (Human), UniProt P56817). In words: Test 1: Inhibition of Human BACE-1. The format is biochemical. As to conditions: recombinant BACE-1, pH 4.5, 1 hour preincubation. The protocol: Test 1: Inhibition of Human BACE-1
(§1) Recombinant BACE-1 (extracellular domain, expressed in baculovirus and purified using standard methods) at 0.1 to 1 nM concentrations is incubated with the test compound at various concentrations for 1 hour at room temperature in 100 mM acetate buffer, pH 4.5, containing 0.1% CHAPS. Activity was measured using a final concentration of 3 μM of the fluorescence-quenched substrate Q-C(HSO3)-Ile-Asp-Leu-Ala-Val-Leu-Asp-HN—CH2—CH2-Mca, where Q=2-nitro-5-amino benzoic acid and Mca=7-methoxy-4-coumarinyl acetic acid. Catalytic turnover was monitored in a Spectramax Gemini fluorescence plate reader (Molecular Devices) in black 96-well microplates using excitation/emission wavelength of 325 nm and 400 nm, respectively. Fluorescence increase was followed for 15 min, in 1 minute's intervals. The fluorescence/time slopes were calculated from duplicate wells and from wells without inhibitor and the IC50 values were calculated using a logistic 4-parameter model.

For a further assay, the target named is Human BACE-2 (Homo sapiens (Human), UniProt Q9Y5Z0). In words: Test 2: Inhibition of Human BACE-2. It is filed as biochemical. Conditions: recombinant BACE-2, pH 4.5, 1 hour preincubation. On the procedure: Test 2: Inhibition of Human BACE-2
as §1, with “BACE-2” for “BACE-1”

The nature of assay [2]: Test 4: Inhibition of Cellular Release of Amyloid Peptide 1-40. Conditions: Cricetulus griseus; CHO cells with human APP, 24 hours with compound; read-out: Test 4 Amyloid-β1-40 release IC50. It is filed as cell-based, Chinese hamster. The protocol: The cells are plated at a density of 8000 cells/well into 96-well microtiter plates and cultivated for 24 hours in DMEM cell culture medium containing 10% FCS. The test compound is added to the cells at various concentrations, and the cells are cultivated for 24 hours in the presence of the test compound. […] The potency of the compound is calculated from the percentage of inhibition of amyloid peptide release as a function of the test compound concentration.

Chain of Human BACE-2 (Q9Y5Z0 63-473): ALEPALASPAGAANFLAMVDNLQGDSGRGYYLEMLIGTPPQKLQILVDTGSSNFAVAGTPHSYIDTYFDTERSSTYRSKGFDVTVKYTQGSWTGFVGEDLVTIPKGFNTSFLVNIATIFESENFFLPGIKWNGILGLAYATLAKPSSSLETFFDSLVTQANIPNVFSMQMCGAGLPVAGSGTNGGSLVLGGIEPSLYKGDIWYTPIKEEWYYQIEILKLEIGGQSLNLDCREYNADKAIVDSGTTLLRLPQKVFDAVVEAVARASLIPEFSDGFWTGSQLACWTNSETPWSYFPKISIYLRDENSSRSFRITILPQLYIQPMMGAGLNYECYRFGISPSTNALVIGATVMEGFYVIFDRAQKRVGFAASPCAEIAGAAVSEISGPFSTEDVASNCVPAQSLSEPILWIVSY
Chain of Human BACE-1 (P56817 46-457): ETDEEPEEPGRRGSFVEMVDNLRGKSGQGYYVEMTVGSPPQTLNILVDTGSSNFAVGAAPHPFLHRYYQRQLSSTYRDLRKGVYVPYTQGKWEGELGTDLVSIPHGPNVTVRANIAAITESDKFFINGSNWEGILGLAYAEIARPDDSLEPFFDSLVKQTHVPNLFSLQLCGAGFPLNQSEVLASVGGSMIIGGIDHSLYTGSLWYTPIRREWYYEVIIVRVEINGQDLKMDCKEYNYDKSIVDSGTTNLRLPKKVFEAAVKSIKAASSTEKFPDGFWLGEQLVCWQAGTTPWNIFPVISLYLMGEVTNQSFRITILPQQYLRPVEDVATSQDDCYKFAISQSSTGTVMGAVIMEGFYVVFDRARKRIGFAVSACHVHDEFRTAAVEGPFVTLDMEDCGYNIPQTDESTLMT

For the compound `CC1(C)OC(N)=NC(C)(c2cc(NC(=O)c3ncc(C#N)cc3Cl)ccc2F)C1(F)F` (centres unmarked) [22 WO 2011/069934 A1, reference compound], in assay [1], the “Abeta lowering in rat CSF” value is listed as −17.9% and the “Abeta lowering in rat forebrain” value is listed as −7.8% (n.s.).
Turning to `CC1(c2cc(NC(=O)c3ncc(C#N)cc3Cl)ccc2F)N=C(N)OCC1(F)F` (centres unmarked) [39 WO 2011/069934 A1, reference compound], in assay [1], the “Abeta lowering in rat CSF” value is −8.2% (n.s.) and the “Abeta lowering in rat forebrain” value is on record as −1.4% (n.s.).
On the same counts, the results for `CC1(c2cc(NC(=O)c3nn(C(F)F)cc3Cl)ccc2F)N=C(N)OCC1(F)F` (centres unmarked) [71 WO 2011/069934 A1, reference compound] are −30.4% and 5.6% (n.s.).
Consider `C[C@]1(c2nc(NC(=O)c3ncc(C#N)cc3Cl)ccc2F)N=C(N)OCC1(F)F` [Example 2, 3-Chloro-5-cyano-pyridine-2-carboxylic acid [6-((R)-2-amino-5,5-difluoro-4-methyl-5,6-dihydro-4H-[1,3]oxazin-4-yl)-5-fluoro-pyridin-2-yl]-amide], for which the IC50 is 12 nM at Human BACE-1, 71 nM on Human BACE-2 and 8 nM in assay [2]. The “Abeta lowering in rat CSF” value in assay [1] is −70.7%. Besides, in assay [1], the “Abeta lowering in rat forebrain” value is on record as −67.1%.
Consider `CC1(C)OC(N)=N[C@](C)(c2nc(NC(=O)c3ncc(C#N)cc3Cl)ccc2F)C1(F)F` [Example 3, 3-Chloro-5-cyano-pyridine-2-carboxylic acid [6-((R)-2-amino-5,5-difluoro-4,6,6-trimethyl-5,6-dihydro-4H-[1,3]oxazin-4-yl)-5-fluoro-pyridin-2-yl]-amide], for which, in assay [1], the “Abeta lowering in rat CSF” value is recorded as −35.3% and the “Abeta lowering in rat forebrain” value was −20.0%.
As to `C[C@]1(c2nc(NC(=O)c3ncc(C(F)(F)F)cc3Cl)ccc2F)N=C(N)OCC1(F)F` [Example 7, 3-Chloro-5-trifluoromethyl-pyridine-2-carboxylic acid [6-((R)-2-amino-5,5-difluoro-4-methyl-5,6-dihydro-4H-[1,3]oxazin-4-yl)-5-fluoro-pyridin-2-yl]-amide], in assay [1], the “Abeta lowering in rat CSF” value was −67.9% and the “Abeta lowering in rat forebrain” value was −63.6%.
Turning to `C[C@]1(c2nc(NC(=O)c3nn(C(F)F)cc3Cl)ccc2F)N=C(N)OCC1(F)F` [Example 30, 4-Chloro-1-difluoromethyl-1H-pyrazole-3-carboxylic acid [6-((R)-2-amino-5,5-difluoro-4-methyl-5,6-dihydro-4H-[1,3]oxazin-4-yl)-5-fluoro-pyridin-2-yl]-amide], the IC50 on Human BACE-1 is 19 nM; at Human BACE-2, 7 nM; in assay [2], 13 nM. In assay [1], the “Abeta lowering in rat CSF” value was −55.2%. Moreover, the “Abeta lowering in rat forebrain” value in assay [1] is −46.6%.
As to `C[C@]1(c2nc(NC(=O)c3nccnc3N)ccc2F)N=C(N)OCC1(F)F` [Example 31, 3-Amino-pyrazine-2-carboxylic acid [6-((R)-2-amino-5,5-difluoro-4-methyl-5,6-dihydro-4H-[1,3]oxazin-4-yl)-5-fluoro-pyridin-2-yl]-amide], the IC50 was determined as 540 nM at Human BACE-1, 490 nM on Human BACE-2 and 180 nM in assay [2].
With `C[C@]1(c2nc(NC(=O)c3ncc(C#CCO)cc3Cl)ccc2F)N=C(N)OCC1(F)F` [Example 32, 3-Chloro-5-(3-hydroxy-prop-1-ynyl)-pyridine-2-carboxylic acid [6-((R)-2-amino-5,5-difluoro-4-methyl-5,6-dihydro-4H-[1,3]oxazin-4-yl)-5-fluoro-pyridin-2-yl]-amide], the IC50 on Human BACE-1 turned out to be 60 nM; on Human BACE-2, 930 nM; in assay [2], 19 nM.
As to `C[C@]1(c2nc(NC(=O)c3ncc(C(F)F)cc3N)ccc2F)N=C(N)OCC1(F)F` [Example 33, 3-Amino-5-difluoromethyl-pyridine-2-carboxylic acid [6-((R)-2-amino-5,5-difluoro-4-methyl-5,6-dihydro-4H-[1,3]oxazin-4-yl)-5-fluoro-pyridin-2-yl]-amide], the IC50 on Human BACE-1 is 140 nM; at Human BACE-2, 260 nM; in assay [2], 66 nM.
With `CC(F)(F)c1nc(N)c(C(=O)Nc2ccc(F)c([C@@]3(C)N=C(N)OCC3(F)F)n2)nc1Cl` [Example 34, 3-Amino-6-chloro-5-(1,1-difluoro-ethyl)-pyrazine-2-carboxylic acid [6-((R)-2-amino-5,5-difluoro-4-methyl-5,6-dihydro-4H-[1,3]oxazin-4-yl)-5-fluoro-pyridin-2-yl]-amide], the IC50 at Human BACE-1 was > 10000 nM; at Human BACE-2, > 10000 nM; in assay [2] it was 6500 nM.
With `C[C@]1(c2nc(NC(=O)c3ccc(C#N)cn3)ccc2F)N=C(N)OCC1(F)F` [Example 35, 5-Cyano-pyridine-2-carboxylic acid [6-((R)-2-amino-5,5-difluoro-4-methyl-5,6-dihydro-4H-[1,3]oxazin-4-yl)-5-fluoro-pyridin-2-yl]-amide], the half-maximal inhibitory concentration (IC50) at Human BACE-1 came to 54 nM; at Human BACE-2, 260 nM; in assay [2] it was 14 nM.
In the case of `CC(F)(F)c1cnc(C(=O)Nc2ccc(F)c([C@@]3(C)N=C(N)OCC3(F)F)n2)c(N)n1` [Example 37, 3-Amino-5-(1,1-difluoro-ethyl)-pyrazine-2-carboxylic acid [6-((R)-2-amino-5,5-difluoro-4-methyl-5,6-dihydro-4H-[1,3]oxazin-4-yl)-5-fluoro-pyridin-2-yl]-amide], the half-maximal inhibitory concentration (IC50) on Human BACE-1 was 64 nM; on Human BACE-2, > 10000 nM; in assay [2], 310 nM.
